Laboratory results taken from patent US10005733B2, “N-(4-hydroxy-4-methyl-cyclohexyl)-4-phenyl-benzenesulfonamide and N-(4-hydroxy-4-methyl-cyclohexyl)-4-(2-pyridyl)-benzenesulfonamide compounds and their therapeutic use” (PIMCO 2664 LIMITED, priority 2014, dated 2018).

Experiments:
CYP1A2 = target: T1, CYP1A2 (Homo sapiens, UniProt P05177); assay: Human Cytochrome P450 Inhibition Assay (Bactosomes), CYP1A2; format: in vitro ADME; settings: recombinant Bactosomes, probe substrate, 10 minutes at 37° C.
T1 construct: purchased Cypex Ltd, Dundee, Scotland UK
T1 sequence (P05177 1-516): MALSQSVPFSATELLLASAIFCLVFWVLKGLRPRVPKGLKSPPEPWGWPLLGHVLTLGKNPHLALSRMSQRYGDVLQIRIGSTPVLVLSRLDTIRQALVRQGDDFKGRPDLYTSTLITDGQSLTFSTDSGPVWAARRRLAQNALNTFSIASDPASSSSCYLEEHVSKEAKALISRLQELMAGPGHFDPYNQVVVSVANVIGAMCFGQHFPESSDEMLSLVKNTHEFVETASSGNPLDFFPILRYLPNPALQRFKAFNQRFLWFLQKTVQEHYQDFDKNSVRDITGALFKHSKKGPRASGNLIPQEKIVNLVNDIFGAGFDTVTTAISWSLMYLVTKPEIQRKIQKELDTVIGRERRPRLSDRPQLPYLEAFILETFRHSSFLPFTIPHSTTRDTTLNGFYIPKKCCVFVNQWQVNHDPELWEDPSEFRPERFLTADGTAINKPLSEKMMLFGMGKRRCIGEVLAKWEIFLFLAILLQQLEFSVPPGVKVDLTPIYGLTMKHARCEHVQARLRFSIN
Procedure: The ability of test compounds to inhibit five of the most relevant cytochrome P450 enzymes was measured by determination of the activity of cytochrome P450 enzymes in recombinant cytochrome preparations, called Bactosomes (Cypex Ltd, Dundee, Scotland UK DD2 1NH), in the presence of a specific probe substrate. Bactosomes are a highly efficient and cost-effective source of recombinant CYP450s which have a higher specific activity of enzyme compared to other sources, such as liver microsomes. […] The following CYP450 isoforms were assayed: CYP1A2, CYP2C9, CYP2C19, CYP2D6 and CYP3A4. The study of CYP450 inhibition potential in Bactosomes is accepted as a valuable model permitting rapid prediction of potential drug-drug interactions in vivo (see, e.g., Weaver et al., 2003).
Bactosomes were obtained from a commercial source (Cypex, Scotland, UK). Test compounds were incubated with Bactosomes at 6 concentrations. Samples were incubated for 10 minutes, after which the reaction was stopped and the samples analysed by LC-MS/MS Multiple Reaction Monitoring (MRM) for the presence/amount of substrate probe.
CYP450 enzymes (final protein 75 pmol/mL for CYP1A2; 12.5 pmol/mL for CYP2C19; and 25 pmol/mL for CYP2C9, 2D6 and 3A4), 0.1 M phosphate buffer pH 7.4, probe and test compound (final concentration 50, 15.8, 5, 1.58, 0.5 and 0.158 μM; diluted from 10 mM stock solution to give a final DMSO concentration of 1%) were pre-incubated at 37° C. for 5 minutes. The reaction was initiated by the addition of 20 μL of 10 mM NADPH in phosphate buffer. The final incubation volume was 200 μL. The following control inhibitors were used for each CYP450 inhibition assay: CYP1A2: α-naphthoflavone; CYP2C9: sulfaphenazole; CYP2C19: tranylcypromine; CYP2D6: quinidine; CYP3A4: ketoconazole.
Each compound was incubated for 10 minutes at 37° C. The reactions were stopped by the addition of methanol (final composition 1:1, aqueous: methanol). The incubation plates were shaken, chilled at […] for 2 hours, and centrifuged at 3500 rpm for 15 minutes at 4° C. to precipitate the protein.
IC50 values were determined by linear transformation within Microsoft Excel.

J774 macrophages = assay: Resazurin Macrophage J774 Viability Assay; format: cell-based; settings: Mus musculus
Procedure: Potency was assessed using a viability assay based on the survival of the J774 macrophage cell line. Macrophages are closely related to osteoclasts and have been used previously as a model system for osteoclast survival (see, e.g., Luckman et al., 1998, “Heterocycle-containing bisphosphonates cause apoptosis and inhibit bone resorption by preventing protein prenylation: evidence from structure-activity relationships in J774 macrophages,” J. Bone Miner. Res., Vol. 13, pp. 1668-1678). The model is indicative both of effects on bone protection in diseases such as osteoporosis, osteoarthritis and rheumatoid arthritis, and of effects on inflammation since, like osteoclasts, J774 macrophages are dependent for survival on continued NFκB activation.
In vitro potency of test compounds was determined by incubation with J774 macrophages and subsequent determination of cell viability using resazurin.
Resazurin is a redox dye commonly used as an indicator of viability in cultured cells (see, e.g., Anoopkumar-Dukie, 2005, “Resazurin assay of radiation response in cultured cells”, British Journal of Radiology, Vol. 78, pp. 945-947). It is non-toxic to cells and stable in culture medium, allowing continuous measurement of cell proliferation in vitro as either a kinetic or endpoint assay. The assay is based on the ability of viable, metabolically-active cells to reduce resazurin (which is blue and non-fluorescent) to resorufin and dihydroresorufin (which are red and fluorescent) using electrons from reducing species, such as nicotinamide […] and flavin adenine dinucleotide (FADH). This transformation, from oxidised form to reduced form, can be measured either colorimetrically or fluorometrically. Insults that impair cell viability and proliferation also affects the capacity of cells to reduce resazurin, and the rate of dye reduction is directly proportional to the number of viable cells present.
For fluorescence measurements, 530-560 nm excitation and 590 nm emission wavelengths are typically used. For colorimetric measurements, absorbance at 570 nm (reduced form) and 600 nm (oxidised form) is typically measured. A simple calculation is performed to determine the relative quantities of the two species: a high ratio of resorufin (the reduced form) to resazurin (the oxidised form) is an indicator that cells are proliferating and viable. A low ratio indicates cells that are quiescent or non-viable.
J774 cells were plated at 10^4 cells per well in 100 μL αMEM (α Modified Eagle Medium) in 96-well plates and allowed to adhere overnight. The following day, test compounds were prepared as 100 mM solutions in DMSO. These stock solutions were diluted in DMSO and then diluted 1000× in culture medium (αMEM) before being added directly to the wells so as to give the desired final compound concentration. After a 72 hour incubation at 37° C./5% CO2, resazurin (Alamar Blue, Biosource International) was added to each well (1:10 v/v, 10 μL). The plate was then incubated at 37° C. for 3 hours and fluorescence was measured at 590 nm, with a 25 nm bandwidth.
The average results for each test compound were expressed as a percent (%) of the average control value reflecting cell viability. The average values across the concentrations tested were then plotted and an IC50 was calculated by fitting the data to a 4-parameter IC50 equation using either Graph Pad Prism software for Windows (Graph Pad Software, San Diego Calif. USA) or Grafit version 5 (Erithacus Software). Each experiment was repeated twice and the data are presented as the mean IC50 from both experiments.

[1] = J774, 72 h, footnote (1): 10 point range 30 μM to 1.5 nM, n = 3 per concentration, Grafit, 72 hour incubation
[2] = J774, footnote (2): 12 point range 10 μM to 0.5 nM, n = 4 per concentration, GraphPad Prism, average of original and new experiments where replicates increased

Row | IC50 (CYP1A2) | SMILES | IC50 (J774 macrophages; [1]) | IC50 (J774 macrophages; [2]) | IC50 (J774 macrophages; J774, first column (original replicates, n = 2), footnote (2): 12 point range 10 μM to 0.5 nM, GraphPad Prism)
1 | 23 µM | C[C@]1(O)CC[C@H](NS(=O)(=O)c2ccc(-c3ccc(C#N)cc3Cl)cc2)CC1 [HMC-C-09-A, 2′-Chloro-4′-cyano-N-((1r,4r)-4-hydroxy-4-methylcyclohexyl)-[1,1′-biphenyl]-4-sulfonamide] | – | 0.69 µM | –
2 | > 16 µM | C[C@]1(O)CC[C@@H](NS(=O)(=O)c2ccc(-c3cc(F)c(F)cc3F)cc2)CC1 [HMC-C-10-B, 2′,4′,5′-Trifluoro-N-((1s,4s)-4-hydroxy-4-methylcyclohexyl)-[1,1′-biphenyl]-4-sulfonamide] | – | 0.54 µM | –
3 | 11 µM | C[C@]1(O)CC[C@H](NS(=O)(=O)c2ccc(-c3ccc(Cl)cc3C#N)c(Cl)c2)CC1 [HMC-C-11-A, 2,4′-Dichloro-2′-cyano-N-((1r,4r)-4-hydroxy-4-methylcyclohexyl)-[1,1′-biphenyl]-4-sulfonamide] | – | 1.46 µM | –
4 | > 50 µM | C[C@]1(O)CC[C@H](NS(=O)(=O)c2ccc(-c3ccc(C#N)cc3)c(F)c2)CC1 [HMC-C-07-A, 4′-Cyano-2-fluoro-N-((1r,4r)-4-hydroxy-4-methylcyclohexyl)-[1,1′-biphenyl]-4-sulfonamide] | – | 1.66 µM | –
5 | – | C[C@]1(O)CC[C@H](NS(=O)(=O)c2ccc(-c3ccc(F)cc3F)cc2)CC1 [ABD900] | 3.64 µM | 2.91 µM | –
6 | 27 µM | C[C@]1(O)CC[C@H](NS(=O)(=O)c2ccc(-c3ccc(Cl)cc3C#N)c(F)c2)CC1 [HMC-C-08-A, 4′-Chloro-2′-cyano-2-fluoro-N-((1r,4r)-4-hydroxy-4-methylcyclohexyl)-[1,1′-biphenyl]-4-sulfonamide] | – | 1.25 µM | –
7 | 36 µM | C[C@]1(O)CC[C@H](NS(=O)(=O)c2ccc(-c3ncc(Cl)cc3C#N)cc2)CC1 [HMC-N-05-A, 4-(5-Chloro-3-cyanopyridin-2-yl)-N-((1r,4r)-4-hydroxy-4-methylcyclohexyl)benzenesulfonamide] | – | 1.82 µM | –
8 | > 25 µM | O=S(=O)(N[C@H]1CC[C@H](O)CC1)c1ccc(-c2ccc(F)cc2F)cc1 [ABD599, reference compound] | 0.41 µM | – | –

Row | SMILES | IC50 (CYP1A2) | IC50 (J774 macrophages; [1]) | IC50 (J774 macrophages; [2]) | IC50 (J774 macrophages; J774, first column (original replicates, n = 2), footnote (2): 12 point range 10 μM to 0.5 nM, GraphPad Prism)
9 | Cc1cc(S(=O)(=O)N[C@H]2CC[C@H](O)CC2)ccc1-c1ccc(F)cc1F [ABD735, reference compound] | > 25 µM | 0.07 µM | 0.11 µM | –
10 | C[C@]1(O)CC[C@@H](NS(=O)(=O)c2ccc(-c3ccc(F)cc3F)cc2)CC1 [ABD899, reference compound] | > 25 µM | 0.27 µM | 0.21 µM | –
11 | C[C@]1(O)CC[C@@H](NS(=O)(=O)c2ccc(-c3ccc(C#N)cc3)c(F)c2)CC1 [HMC-C-07-B, 4′-Cyano-2-fluoro-N-((1s,4s)-4-hydroxy-4-methylcyclohexyl)-[1,1′-biphenyl]-4-sulfonamide] | > 50 µM | – | 0.096 µM | 0.09 µM
